Source: ChEMBL document CHEMBL5331042, “Azole inhibitors of mushroom and human tyrosinases: Current advances and prospects of drug development for melanogenic dermatological disorders” (Eur J Med Chem, 2022)

target: T1, Mushroom tyrosinase (Agaricus bisporus, UniProt O42713+Q00024+C7FF04+C7FF05); test: Inhibition of mushroom tyrosinase incubated for 10 mins by spectrophotometric analysis

With CCCCCn1nc(-c2ccccc2)n(CC(=O)NNC(=O)Nc2cc(Cl)cc(Cl)c2)c1=O the IC50 was > 20000 nM.
In the case of CCCCCn1nc(-c2ccccc2)n(CC(=O)NNC(=S)Nc2cccc(C(F)(F)F)c2)c1=O, the IC50 is reported as > 20000 nM.

Compared with CCCCCn1nc(-c2ccccc2)n(CC(=O)NNC(=S)Nc2ccc(F)cc2F)c1=O, CCCCCn1nc(-c2ccccc2)n(CC(=O)NNC(=O)Nc2ccc(Cl)cc2Cl)c1=O is 12-fold lower in IC50: 19 nM for the first, 1.62 nM for the second.

target: T1, Mushroom tyrosinase; test: Inhibition of mushroom tyrosinase using L-DOPA as substrate preincubated for 10 mins followed by substrate addition by absorbance based analysis

First: O=c1oc2ccccc2cc1C1=NN(c2nc(-c3ccc(Br)cc3)cs2)C(c2ccc(OCc3ccccc3)cc2)C1 (configuration not stated)
Second: O=c1oc2ccccc2cc1C1=NN(c2nc(-c3ccc(Br)cc3)cs2)C(c2ccccc2)C1 (configuration not stated)
The IC50 of the first is 3.7-fold higher: 970 nM for the first, 260 nM for the second.

Going from O=c1oc2ccccc2cc1C1=NN(c2nc(-c3ccc(Br)cc3)cs2)C(c2ccc(Cl)cc2)C1 (configuration not stated) to O=c1oc2ccccc2cc1C1=NN(c2nc(-c3ccc(Br)cc3)cs2)C(c2ccc(O)cc2)C1 (configuration not stated), the IC50 falls from 460 nM to 230 nM (2-fold).

Compared with CN(C)c1ccc(C2CC(c3cc4ccccc4oc3=O)=NN2c2nc(-c3ccc(Br)cc3)cs2)cc1 (configuration not stated), O=c1oc2ccccc2cc1C1=NN(c2nc(-c3ccc(Br)cc3)cs2)C(c2ccc(Br)cc2)C1 (configuration not stated) is 4.2-fold lower in IC50: 220 nM for the first, 52 nM for the second.

Sc1nnc(/N=C/c2ccc(Cl)c(Cl)c2)s1 and Sc1nnc(/N=C/c2cccc(Cl)c2)s1 are within 1.5-fold of each other in IC50: 3620 nM for the first, 4750 nM for the second.

Compared with COc1cc(OC)c(/C=N/c2nnc(S)s2)c(OC)c1, COc1cc(/C=N/c2nnc(S)s2)cc(OC)c1O is 1.9-fold lower in IC50: 900 nM for the first, 473 nM for the second.

Compared with CC(C)(C)c1ccc(/C=N/c2nnc(S)s2)cc1, COc1ccccc1/C=N/c1nnc(S)s1 is 1.9-fold lower in IC50: 1400 nM for the first, 730 nM for the second.

Oc1ccccc1/C=N/c1nnc(S)s1 and Fc1ccccc1/C=N/c1nnc(S)s1 are within 1.5-fold of each other in IC50: 780 nM for the first, 760 nM for the second.

First: O=[N+]([O-])c1ccccc1/C=N/c1nnc(S)s1
Second: Oc1ccc(Cl)cc1/C=N/c1nnc(S)s1
The IC50 of the first is 2.6-fold lower: 670 nM for the first, 1710 nM for the second.

S=c1[nH]nc(/N=C/c2ccc(Cl)cc2)s1 and Oc1ccc(Br)cc1/C=N/c1nnc(S)s1 are within 1.5-fold of each other in IC50: 2460 nM for the first, 1970 nM for the second.

First: COc1ccc(C2CC(c3cc4ccccc4oc3=O)=NN2c2nc(-c3ccc(Br)cc3)cs2)cc1O (configuration not stated)
Second: COc1ccc(C2CC(c3cc4ccccc4oc3=O)=NN2c2nc(-c3ccc(Br)cc3)cs2)cc1[N+](=O)[O-] (configuration not stated)
The IC50 of the first is 10-fold lower: 83 nM for the first, 870 nM for the second.

Compared with O=c1oc2ccccc2cc1C1=NN(c2nc(-c3ccc(Br)cc3)cs2)C(c2ccc([N+](=O)[O-])cc2)C1 (configuration not stated), O=c1oc2ccccc2cc1C1=NN(c2nc(-c3ccc(Br)cc3)cs2)C(c2cc([N+](=O)[O-])ccc2O)C1 (configuration not stated) is 7-fold higher in IC50: 130 nM for the first, 910 nM for the second.

First: O=c1oc2ccccc2cc1C1=NN(c2nc(-c3ccc(Br)cc3)cs2)C(c2ccco2)C1 (configuration not stated)
Second: O=c1oc2ccccc2cc1C1=NN(c2nc(-c3ccc(Br)cc3)cs2)C(c2ccccc2O)C1 (configuration not stated)
The IC50 of the first is 4-fold higher: 380 nM for the first, 96 nM for the second.

COc1cccc(C2CC(c3cc4ccccc4oc3=O)=NN2c2nc(-c3ccc(Br)cc3)cs2)c1O (configuration not stated) and O=c1oc2ccccc2cc1C1=NN(c2nc(-c3ccc(Br)cc3)cs2)C(c2cc([N+](=O)[O-])ccc2Cl)C1 (configuration not stated) are within 1.5-fold of each other in IC50: 37 nM for the first, 28 nM for the second.

Going from COc1cc(/C=N/c2nnc(S)s2)cc(OC)c1 to CCn1c2ccccc2c2cc(C3CC(c4cc5ccccc5oc4=O)=NN3c3nc(-c4ccc(Br)cc4)cs3)ccc21 (configuration not stated), the IC50 falls from 5350 nM to 100 nM (54-fold).

Compound O=c1oc2ccccc2cc1C1=NN(c2nc(-c3ccc(Br)cc3)cs2)C(C2=CC3C=CC=CC3N2)C1 (configuration not stated) has an IC50 of 17 nM.

With Sc1nnc(/N=C/c2ccccc2)s1 the IC50 was > 20000 nM.

target: T1, Mushroom tyrosinase; test: Inhibition of mushroom tyrosinase using L-DOPA as substrate preincubated for 10 mins followed by substrate addition and measured after 20 mins by absorbance based analysis

Compared with O=C1C=C(Cn2cc(COc3ccc(CO)cc3)nn2)C(=O)C=C1O, O=C1C=C(Cn2cc(COc3ccc(Br)cc3)nn2)C(=O)C=C1O is 5.2-fold higher in IC50: 1320 nM for the first, 6800 nM for the second.

O=C1OC(c2ccc(Cl)cc2)=NC(=S)C1c1nn[nH]n1 (configuration not stated) and Cc1ccc(C2=NC(=S)C(c3nn[nH]n3)C(=O)O2)cc1 (configuration not stated) are within 1.5-fold of each other in IC50: 290 nM for the first, 310 nM for the second.

First: Nc1nc(Cc2nnc(SCC(=O)Nc3ccccc3)n2-c2ccccc2)cs1
Second: Nc1nc(Cc2nnc(SCC(=O)NCc3ccccc3)n2-c2ccccc2)cs1
The IC50 of the first is 7.8-fold lower: 130 nM for the first, 1010 nM for the second.

CCc1ccc(NC(=O)CSc2nnc(Cc3csc(N)n3)n2-c2ccccc2)cc1 and CCOc1ccc(NC(=O)CSc2nnc(Cc3csc(N)n3)n2-c2ccccc2)cc1 are within 1.5-fold of each other in IC50: 120 nM for the first, 170 nM for the second.

Compared with Cc1ccccc1NC(=O)CSc1nnc(Cc2csc(N)n2)n1-c1ccccc1, CCc1ccccc1NC(=O)CSc1nnc(Cc2csc(N)n2)n1-c1ccccc1 is 4.3-fold higher in IC50: 15 nM for the first, 65 nM for the second.

O=C1C=C(Cn2cc(COc3cccc(Cl)c3)nn2)C(=O)C=C1O and O=C1C=C(Cn2cc(COc3cccc(F)c3)nn2)C(=O)C=C1O are within 1.5-fold of each other in IC50: 990 nM for the first, 1070 nM for the second.

Compared with COc1ccc(OCc2cn(CC3=CC(=O)C(O)=CC3=O)nn2)cc1, O=C1C=C(Cn2cc(COc3ccc(Cl)cc3)nn2)C(=O)C=C1O is 1.8-fold lower in IC50: 1240 nM for the first, 690 nM for the second.

O=C1OC(c2ccc([N+](=O)[O-])cc2)=NC(=S)C1c1nn[nH]n1 (configuration not stated) and O=C1OC(c2cc([N+](=O)[O-])cc([N+](=O)[O-])c2)=NC(=S)C1c1nn[nH]n1 (configuration not stated) are within 1.5-fold of each other in IC50: 81 nM for the first, 75 nM for the second.

First: O=C1C=C(Cn2cc(COc3ccc([N+](=O)[O-])cc3)nn2)C(=O)C=C1O
Second: O=C1C=C(Cn2cc(COc3ccc(F)cc3)nn2)C(=O)C=C1O
The IC50 of the first is 1.7-fold lower: 520 nM for the first, 880 nM for the second.

Cc1ccc(NC(=O)CSc2nnc(Cc3csc(N)n3)n2-c2ccccc2)c(C)c1 and Cc1ccc(C)c(NC(=O)CSc2nnc(Cc3csc(N)n3)n2-c2ccccc2)c1 are within 1.5-fold of each other in IC50: 54 nM for the first, 58 nM for the second.

Going from N#Cc1ccc(OCc2cn(CC3=CC(=O)C(O)=CC3=O)nn2)cc1 to CC(=O)Nc1ccc(OCc2cn(CC3=CC(=O)C(O)=CC3=O)nn2)cc1, the IC50 falls from 6290 nM to 2640 nM (2.4-fold).

Compared with Cc1cccc(C)c1NC(=O)CSc1nnc(Cc2csc(N)n2)n1-c1ccccc1, CCc1cccc(C)c1NC(=O)CSc1nnc(Cc2csc(N)n2)n1-c1ccccc1 is 3.7-fold higher in IC50: 51 nM for the first, 190 nM for the second.

O=C1C=C(Cn2cc(COc3ccccc3)nn2)C(=O)C=C1O and O=C1C=C(Cn2cc(COc3ccc(Cl)cc3Cl)nn2)C(=O)C=C1O are within 1.5-fold of each other in IC50: 1330 nM for the first, 1120 nM for the second.

Compared with O=C1OC(c2ccccc2Cl)=NC(=S)C1c1nn[nH]n1 (configuration not stated), O=C1OC(c2ccc(Cl)cc2Cl)=NC(=S)C1c1nn[nH]n1 (configuration not stated) is 1.9-fold lower in IC50: 88 nM for the first, 47 nM for the second.

Compared with Nc1nc(Cc2nnc(SCC(=O)NCCc3ccccc3)n2-c2ccccc2)cs1, Cc1cccc(NC(=O)CSc2nnc(Cc3csc(N)n3)n2-c2ccccc2)c1C is 130-fold higher in IC50: 16 nM for the first, 2010 nM for the second.

Compared with Cc1cc(C)cc(NC(=O)CSc2nnc(Cc3csc(N)n3)n2-c2ccccc2)c1, Cc1ccc(NC(=O)CSc2nnc(Cc3csc(N)n3)n2-c2ccccc2)cc1C is 2.2-fold lower in IC50: 240 nM for the first, 110 nM for the second.

O=C1OC(c2cccc(Cl)c2)=NC(=S)C1C1N=NN=N1 (configuration not stated) and O=C1OC(c2cccc([N+](=O)[O-])c2)=NC(=S)C1C1N=NN=N1 (configuration not stated) are within 1.5-fold of each other in IC50: 71 nM for the first, 60 nM for the second.

COc1cc(OCc2cn(CC3=CC(=O)C(O)=CC3=O)nn2)cc(OC)c1OC and COc1cc(OC)cc(OCc2cn(CC3=CC(=O)C(O)=CC3=O)nn2)c1 are within 1.5-fold of each other in IC50: 870 nM for the first, 740 nM for the second.

Compared with COc1ccc(C2=NC(=S)C(C3N=NN=N3)C(=O)O2)cc1 (configuration not stated), COc1cccc(OC)c1C1=NC(=S)C(c2nn[nH]n2)C(=O)O1 (configuration not stated) is 2.7-fold higher in IC50: 73 nM for the first, 200 nM for the second.
